Reference: PMC5610480, “Original Chemical Series of Pyrimidine Biosynthesis Inhibitors That Boost the Antiviral Interferon Response” (Antimicrobial Agents and Chemotherapy, 2017)
Like-named read-outs stand apart in the source and are kept apart here.

How the values were obtained:
[1] = system: ISRE-luciferase reporter gene; test: ISRE-luciferase induction in STING-37 reporter cells; conditions: STING-37 cells, 24 h, increasing doses
[2] = system: de novo pyrimidine biosynthesis; test: Intracellular nucleoside/nucleotide and UDP-sugar levels by HPLC; type: cell-based, human
[3] = system: MV-Luc; set-up: method as in PMID 25558988; conditions: HEK-293T cells; previously reported ref 9; read-out: IC50, inhibition of MV-Luc; cited from earlier work
[4] = in vitro; conditions: human
[5] = system: MV-Luc; test: microbe, parasite or virus in culture; type: cell-based, measles virus (MV); conditions: for antiviral potency relative to DD363: MV-Luc IC50, fold higher than for DD363; for IC50: Measles morbillivirus, HEK-293T, 24 h, read-out: IC50 (μM), inhibition of MV-Luc
[6] = system: IFN-β; test: RT-qPCR gene expression in STING-37 cells: IFN-β; type: cell-based, human; conditions: 30 μM, 24 h, DMSO None = 1
Protocol: (§1) To further document the consequences of DD778 treatment on the cellular response to ssRNA, mRNA levels for RIG-I, MDA5, oligoadenylate synthase-like protein (OASL), IFN-α4, IFN-β, IFN-λ1, and IFN-λ2/3 were determined by reverse transcription-quantitative PCR (RT-qPCR). […] Furthermore, the effects of DD778 on the expression of these genes could be reversed by the addition of uridine in culture medium. […] In parallel, we measured in culture supernatants the concentrations of IFN-β, IFN-λ1, IFN-λ2/3, and interferon-inducible protein of 10 kDa (IP-10), which is a well-characterized IFN-inducible chemokine (Fig. 7C). […] This illustrates an original mechanism by which cells can communicate with neighbors on their metabolic status.
(§2) Upper images correspond to representative experiments.

[7] = system: MV-Luc; test: Complementation of MV-Luc inhibition with uridine, DHO or orotate; conditions: 24 h
[8] = system: MDA5; test: Western blotting of MDA5 in STING-37 cells
[9] = system: RIG-I; test: RT-qPCR gene expression in STING-37 cells: RIG-I; type: cell-based, human; conditions: 30 μM, 24 h, DMSO None = 1
Protocol: as §1, §2

[10] = system: OASL; test: RT-qPCR gene expression in STING-37 cells: OASL; type: cell-based, human; conditions: 30 μM, 24 h, DMSO None = 1
Protocol: as §1, §2

[11] = system: CHIKV expressing Renilla luciferase; test: microbe, parasite or virus in culture; type: cell-based; conditions: Chikungunya virus, HEK-293T, 24 h, read-out: IC50, CHIKV Renilla luciferase
[12] = system: RIG-I; test: Western blotting of RIG-I in STING-37 cells
[13] = system: ISRE-luciferase reporter gene; test: ISRE-luciferase response to MV infection in STING-37 cells; conditions: 30 μM added 9 h after infection, read 16 h later
[14] = system: IFN-α4; test: RT-qPCR gene expression in STING-37 cells: IFN-α4; type: cell-based, human; conditions: 30 μM, 24 h, DMSO None = 1
Protocol: as §1, §2

[15] = system: IFN-λ1; test: RT-qPCR gene expression in STING-37 cells: IFN-λ1; type: cell-based, human; conditions: 30 μM, 24 h, DMSO None = 1
Protocol: as §1, §2

[16] = system: MDA5; test: RT-qPCR gene expression in STING-37 cells: MDA5; type: cell-based, human; conditions: 30 μM, 24 h, DMSO None = 1
Protocol: as §1, §2

[17] = system: IFN-β, IFN-λ1, IFN-λ2/3, and IP-10; test: Cytokines in culture supernatants, LEGENDplex
[18] = system: IFN-λ2/3; test: RT-qPCR gene expression in STING-37 cells: IFN-λ2/3; type: cell-based, human; conditions: 30 μM, 24 h, DMSO None = 1
Protocol: as §1, §2

[19] = system: IFN biological activity; test: IFN biological activity of culture supernatants on fresh STING-37 cells; conditions: no ssRNA, supernatants at 48 h
[20] = system: DHODH; set-up: method as in PMID 20183850; conditions: read-out: IC50 on the recombinant enzyme; cited from earlier work
[21] = MV MOI 2, 30 μM added at 9 h, 39 h more

Cc1c(-c2ccc(-c3ccccc3F)cc2)nc2ccc(F)cc2c1C(=O)O [Brequinar, brequinar, reference compound]
induction of the ISRE-luciferase gene (compound alone) [1]: induced
inhibition of de novo pyrimidine biosynthesis ([2]; submicromolar concentrations, 24 h): inhibited
IC50 [3]: 0.04 µM

O=c1oc2ccc(Cl)cc2c2c1C(c1c[nH]c3ccccc13)C([N+](=O)[O-])O2 (centres unmarked) [DD771]
CC50 at 24 h [4]: > 50 µM
antiviral potency relative to DD363 [5]: 2- to 9 fold
IC50 [5]: 1.7 ± 0.4 µM

Cc1cc2c(c(=O)o1)C(c1c[nH]c3ccccc13)C([N+](=O)[O-])O2 (centres unmarked) [DD786]
induction of the ISRE-luciferase gene (compound alone) [1]: unable to do so
CC50 at 24 h [4]: > 50 µM
IC50 [5]: > 50 µM

Cn1cc(C2c3c(c4cc(Cl)ccc4oc3=O)OC2[N+](=O)[O-])c2ccccc21 (centres unmarked) [JP10]
CC50 at 24 h [4]: > 50 µM
IC50 [5]: > 50 µM

O=c1oc2ccc(Cl)cc2c2c1C(c1c[nH]c3ccc(Br)cc13)C([N+](=O)[O-])O2 (centres unmarked) [DD783]
CC50 at 24 h [4]: > 50 µM
IC50 [5]: 42 ± 7 µM

Cc1[nH]c2ccccc2c1C1c2c(c3cc(Cl)ccc3oc2=O)OC1[N+](=O)[O-] (centres unmarked) [JP25]
CC50 at 24 h [4]: > 50 µM
IC50 [5]: 47 ± 7 µM

Cn1c(=O)c2c(c3ccccc31)OC([N+](=O)[O-])C2c1c[nH]c2ccccc12 (centres unmarked) [DD787]
CC50 at 24 h [4]: > 50 µM
IC50 [5]: 16 ± 3 µM

O=c1oc2ccc(Br)cc2c2c1C(c1c[nH]c3ccccc13)C([N+](=O)[O-])O2 (centres unmarked) [JP52]
CC50 at 24 h [4]: > 50 µM
antiviral potency relative to DD363 [5]: 2- to 9 fold
IC50 [5]: 1.2 ± 0.2 µM

O=c1oc2ccc(F)cc2c2c1C(c1c[nH]c3ccccc13)C([N+](=O)[O-])O2 (centres unmarked) [DD776]
CC50 at 24 h [4]: > 50 µM
antiviral potency relative to DD363 [5]: 2- to 9 fold
IC50 [5]: 3.8 ± 0.8 µM

O=C1CCCc2occ(-c3cccc(Cl)c3)c21 [DD264, reference compound]
CC50 at 24 h [4]: > 80 µM
IC50 [5]: 15 ± 2 µM

O=c1oc2ccc(Cl)cc2c2c1C(c1c[nH]c3ccccc13)CO2 (centres unmarked) [JP46]
CC50 at 24 h [4]: 50 ± 8 µM
decrease of antiviral potency relative to DD771 ([5]; MV-Luc IC50): 9 fold
IC50 [5]: 16 ± 4 µM

Cc1ccc2oc(=O)c3c(c2c1)OC([N+](=O)[O-])C3c1c[nH]c2ccccc12 (centres unmarked) [DD778]
induction of the ISRE-luciferase gene (compound alone) [1]: induced
intracellular UDP-Gal level ([2]; HEK-293T cells treated 24 h): collapsed
intracellular UDP-GalNac level ([2]; HEK-293T cells treated 24 h): maintained at high levels
purine levels (A and G) ([2]; HEK-293T cells treated 24 h): unaffected
uridine (U) and cytidine (C) levels ([2]; HEK-293T cells treated 24 h): collapsed
IFN-β expression level (RT-qPCR) ([6]; ssRNA (60 ng/well)): 4±3
IFN-β expression level (RT-qPCR) ([6]; ssRNA (120 ng/well)): 17±5
IFN-β expression level (RT-qPCR) ([6]; ssRNA: None): 1.5±0.8
CC50 at 24 h [4]: 207 ± 20 µM
effect of DHO on viral replication in treated cells ([7]; DD778 10 μM, DHO 3 mM): no effect
effect of uridine and orotate on viral replication in treated cells ([7]; DD778 10 μM, uridine 130 μM, orotate 3 mM): restore viral replication
MDA5 protein expression, ssRNA-transfected cells ([8]; 30 μM, 48 h): promoted the expression
effects on MDA5 protein expression, MV-infected cells [8, 21]: limited
RIG-I expression level (RT-qPCR) ([9]; ssRNA (60 ng/well)): 12±5
RIG-I expression level (RT-qPCR) ([9]; ssRNA (120 ng/well)): 57±9
RIG-I expression level (RT-qPCR) ([9]; ssRNA: None): 1.3±0.4
OASL expression level (RT-qPCR) ([10]; ssRNA (60 ng/well)): 17±3
OASL expression level (RT-qPCR) ([10]; ssRNA (120 ng/well)): 111±21
OASL expression level (RT-qPCR) ([10]; ssRNA: None): 3±2
IC50 [11]: 1.4 ± 0.2 µM
RIG-I protein expression, ssRNA-transfected cells ([12]; 30 μM, 48 h): promoted the expression
RIG-I protein expression, MV-infected cells [12, 21]: boosted
cellular response to MV infection (ISRE-luciferase) [13]: efficiently boosted
IFN-α4 expression level (RT-qPCR) ([14]; ssRNA (60 ng/well)): 1.3±0.7
IFN-α4 expression level (RT-qPCR) ([14]; ssRNA (120 ng/well)): 1.4±0.6
IFN-α4 expression level (RT-qPCR) ([14]; ssRNA: None): 1.3±0.7
IFN-λ1 expression level (RT-qPCR) ([15]; ssRNA (60 ng/well)): 14±3
IFN-λ1 expression level (RT-qPCR) ([15]; ssRNA (120 ng/well)): 130±10
IFN-λ1 expression level (RT-qPCR) ([15]; ssRNA: None): 1.9±0.6
antiviral potency relative to DD363 [5]: 2- to 9 fold
IC50 [5]: 2.9 ± 0.3 µM
MDA5 expression level (RT-qPCR) ([16]; ssRNA (60 ng/well)): 5±1
MDA5 expression level (RT-qPCR) ([16]; ssRNA (120 ng/well)): 23±2
MDA5 expression level (RT-qPCR) ([16]; ssRNA: None): 1.1±0.1
expression of IFN-β, IFN-λ1, IFN-λ2/3, and IP-10 in supernatants, ssRNA-stimulated cells ([17]; 30 μM, 120 ng ssRNA, 48 h): increased the expression
IFN-β expression in supernatants, MV-infected cells [17, 21]: not statistically enhanced
expression of IFN-λ1, IFN-λ2/3, and IP-10 in supernatants, MV-infected cells [17, 21]: efficiently increased
IFN-λ2/3 expression level (RT-qPCR) ([18]; ssRNA (60 ng/well)): 7±1
IFN-λ2/3 expression level (RT-qPCR) ([18]; ssRNA (120 ng/well)): 55±12
IFN-λ2/3 expression level (RT-qPCR) ([18]; ssRNA: None): 1.4±0.7
IFN activity in supernatants of cells treated with compound alone [19]: did not show any IFN activity

Cc1ccc2oc(=O)c3c(c2c1)OC([N+](=O)[O-])C3c1c[nH]c2ccc(Br)cc12 (centres unmarked) [DD784]
CC50 at 24 h [4]: > 50 µM
IC50 [5]: 40 ± 7 µM

C/C(O)=C(\C#N)C(=O)Nc1ccc(C(F)(F)F)cc1 [Teriflunomide, teriflunomide]
IC50 [3]: 5 µM

O=c1oc2ccccc2c(O)c1Cc1c(O)c2ccccc2oc1=O [Dicoumarol, dicoumarol, reference compound]
induction of the ISRE-luciferase gene (compound alone) [1]: induced
antiviral effect when culture medium is supplemented with uridine ([7]; uridine 130 μM): fully reversed
IC50 [20]: 6.6 µM
IC50 [5]: 12 ± 0.3 µM

O=c1oc2ccccc2c2c1C(c1c[nH]c3ccccc13)CO2 (centres unmarked) [JP42]
CC50 at 24 h [4]: > 50 µM
IC50 [5]: 16 ± 3 µM

Cc1cc2oc(=O)c3c(c2cc1C)OC([N+](=O)[O-])C3c1c[nH]c2ccccc12 (centres unmarked) [DD775]
CC50 at 24 h [4]: > 50 µM
IC50 [5]: 1.7 ± 0.4 µM

O=c1oc2ccccc2c(O)c1C(C[N+](=O)[O-])c1c[nH]c2ccccc12 (centres unmarked) [JP39]
CC50 [4]: > 50 µM
IC50 [5]: > 50 µM

O=C1C(=O)c2ccccc2C2=C1C(c1c[nH]c3ccccc13)C([N+](=O)[O-])O2 (centres unmarked) [DD785]
CC50 at 24 h [4]: > 50 µM
IC50 [5]: > 50 µM

O=c1oc2ccccc2c2c1C(c1cccc(Cl)c1)C([N+](=O)[O-])O2 (centres unmarked) [DD311]
CC50 at 24 h [4]: > 50 µM
IC50 [5]: 47 ± 4 µM

CCc1ccc2oc(=O)c3c(c2c1)OC([N+](=O)[O-])C3c1c[nH]c2ccccc12 (centres unmarked) [JP49]
CC50 at 24 h [4]: > 50 µM
antiviral potency relative to DD363 [5]: 2- to 9 fold
IC50 [5]: 5.3 ± 1.1 µM
